The source made the active and inactive calls. The rule behind the calls is not given here.
Columns and labels:
Assay type in all cases: functional
[1] = species on record: Rattus norvegicus; test: The compound gated current reflects the peak current directly gated by 10 uM compound in the absence of GABA compared to the response obtained from the same cell in response to 1 uM GABA alone.
[2] = species on record: Rattus norvegicus; test: The Magnitude of the peak current produced by 1 uM GABA plus 1 uM compound was normalized with respect to the peak current produced by 1 uM GABA alone on the same cell.
[3] = species on record: Rattus norvegicus; test: The compound gated current reflects the peak current directly gated by 10 uM compound in the absence of GABA compared to the response obtained from the same cell in response to 1 uM GABA alone; No response
[4] = species on record: Rattus norvegicus; test: The Magnitude of the peak current produced by 1 uM GABA plus 1 uM compound was normalized with respect to the peak current produced by 1 uM GABA alone on the same cell. Values are mean+/-SEM

Row | Compound | Effect [1] | Response [2] [%] | Effect [3] | Response [4] [%]
1 | C[C@]12CCC3C[C@@H](CCO)CCC3C1CC[C@@H]2C#N (stereo partly specified) | 115 | 497 | – | –
2 | CC(=O)C1CCC2C3CC[C@H](CCO)CC3CC[C@]12C (stereo partly specified) | 43 | 213 | – | –
3 | CC(=O)[C@H]1CCC2C3CC[C@@H](CCO)CC3CC[C@@]21C (stereo partly specified) | – | – | inactive | 489
4 | C[C@]12CC[C@@H]3C4CC[C@@H](O)C[C@@H]4CC[C@H]3[C@@H]1CC[C@H]2C#N (stereo partly specified) | 166 | 514 | – | –
5 | C[C@]12CCC3C[C@@H](CCO)CCC3C1CC[C@@H]2O (stereo partly specified) | – | 93 | inactive | –
6 | C[C@]12CCC3C[C@@H](CCO)CCC3C1CCC2C#N (stereo partly specified) | – | 104 | inactive | –
7 | CC(=O)[C@@H]1CC[C@H]2[C@@H]3CC[C@@H]4C[C@H](O)CCC4[C@H]3CC[C@]12C (stereo partly specified) | 30 | 523 | – | –
8 | CC(=O)[C@H]1CCC2C3CC[C@H](CCO)CC3CC[C@@]21C (stereo partly specified) | 113 | 312 | – | –
9 | CC(C)(C)O[C@H]1CCC2C3CC[C@H](CCO)CC3CC[C@@]21C (stereo partly specified) | – | 114 | inactive | –
10 | C[C@]12CCC3C[C@H](CCO)CCC3C1CC[C@@H]2C#N (stereo partly specified) | – | 346 | inactive | –
11 | C[C@]12CC[C@@H]3C4CC[C@@H](O)C[C@H]4CC[C@H]3[C@@H]1CC[C@H]2C#N (stereo partly specified) | 49 | 443 | – | –
12 | C[C@]12CCC3C[C@@H](CCO)CCC3C1CCC2=O (stereo partly specified) | – | 197 | inactive | –
13 | CC(=O)[C@@H]1CC[C@H]2[C@@H]3CC[C@H]4C[C@H](O)CCC4[C@H]3CC[C@]12C (stereo partly specified) | 144 | 521 | – | –

— ChEMBL document CHEMBL1128188, “Neurosteroid analogues. 3. The synthesis and electrophysiological evaluation of benz[e]indene congeners of neuroactive steroids having the 5 beta-configuration” (1995)
